Our source for the GI50 values is US20240398805A1, “QUINAZOLINE DERIVED COMPOUNDS AS EGFR INHIBITORS AND THEIR USES THEREOF” (ACCUTAR BIOTECHNOLOGY INC., priority 2021, published 2024).

Format in all cases: cell-based
The test system of experiment [1] is HCC827-YVMA cells (human ERBB2 exon20 insertion mutant A775_G776ins YVMA). Put plainly: Cell growth inhibition (CellTiter-Glo, 3 days) in HCC827-YVMA. The following applies: 72 h, 3 days after administration. A digest of the protocol: (§1)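 HCC827 cells lentivirally transduced with codon-optimized ASV or YVMA insertion mutants were seeded at 5000 cells/well in RPMI with 10% FBS and incubated overnight. Compound was added at various concentrations from a 10× stock in medium, with 3 days' incubation. Viability read by CellTiter-Glo luminescence.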
(Cellular ATP, detected with luciferase, serves as a proxy for viable cell number.)

In experiment [2] the test system is HCC827 cells. Put plainly: Cell growth inhibition (CellTiter-Glo, 3 days) in HCC827. The following applies: Homo sapiens, 72 h, 3 days after administration. A digest of the protocol: (§2)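 Growth inhibition was scored by CellTiter-Glo luminescence after 3-day compound exposure at various concentrations. Cells were plated at 5000/well the day before treatment: A431 in DMEM and HCC827 in RPMI, each with 10% FBS.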

Experiment [3] concerns HCC827-SVD cells (human EGFR exon 20 insertion mutant D770_N771 insSVD). Put plainly: Cell growth inhibition (CellTiter-Glo, 3 days) in HCC827-SVD. The following applies: 72 h, 3 days after administration. A digest of the protocol:
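HCC827 cells carrying lentiviral codon-optimized EGFR D770_N771 insSVD, with endogenous EGFR knocked out by CRISPR (single clone), seeded at 5000 cells/well in RPMI with 10% FBS. Viability read by CellTiter-Glo luminescence.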

Experiment [4] has as its system HCC827-ASV cells (human EGFR exon 20 insertion mutant A769_D770insASV). Nature of the experiment: Cell growth inhibition (CellTiter-Glo, 3 days) in HCC827-ASV. The following applies: 72 h, 3 days after administration. A digest of the protocol: as §1
Experiment [5] deals with A431 cells. Put plainly: Cell growth inhibition (CellTiter-Glo, 3 days) in A431. The following applies: Homo sapiens, A-431, 72 h, 3 days after administration. The gist of the method: as §2

`C=CC(=O)N1CCC(Nc2cc3c(Nc4ccc(Oc5ccnc(N6C[C@@H](F)[C@@H](F)C6)c5)cc4F)ncnc3cc2OC)CC1` [Example 253, 1-(4-((4-((4-((2-((3S,4R)-3,4-difluoropyrrolidin-1-yl)pyridin-4-yl)oxy)-2-fluorophenyl)amino)-7-methoxyquinazolin-6-yl)amino)piperidin-1-yl)prop-2-en-1-one]: the concentration for 50% growth inhibition (GI50) – broadly, the concentration at which growth is held to half of that of the control – in experiment [1] lay within 30 to 60 nM; in experiment [2] it was 100 to 300 nM; in experiment [3], 30 to 60 nM; in experiment [4], 30 to 60 nM; in experiment [5], 300 to 600 nM.

For the molecule `C=CC(=O)N1CCC(Nc2cc3c(Nc4ccc(Oc5ccnc(N6C[C@@H]7OCCO[C@@H]7C6)c5)cc4F)ncnc3cc2OC)CC1` [Example 254, 1-(4-((4-((2-fluoro-4-((2-((4aR,7aS)-hexahydro-6H-[1,4]dioxino[2,3-c]pyrrol-6-yl)pyridin-4-yl)oxy)phenyl)amino)-7-methoxyquinazolin-6-yl)amino)piperidin-1-yl)prop-2-en-1-one], the 50% growth inhibitory concentration (GI50) was less than 30 nM in experiment [1]; 60 to 100 nM in experiment [2]; less than 30 nM in experiment [3]; less than 30 nM in experiment [4]; not below 1000 nM in experiment [5].

`C=CC(=O)N1CCC(Nc2cc3c(Nc4ccc(Oc5ccnc(N6C[C@@H](OC)[C@H](OC)C6)c5)cc4F)ncnc3cc2OC)CC1` [Example 255, 1-(4-((4-((4-((2-((3R,4R)-3,4-dimethoxypyrrolidin-1-yl)pyridin-4-yl)oxy)-2-fluorophenyl)amino)-7-methoxyquinazolin-6-yl)amino)piperidin-1-yl)prop-2-en-1-one]: the GI50 in experiment [1] is less than 30 nM; in experiment [2] it was 300 to 600 nM; in experiment [3], less than 30 nM; in experiment [4] it was less than 30 nM; in experiment [5] it was not below 1000 nM.

With `C=CC(=O)N1CCC(Nc2cc3c(Nc4ccc(Oc5ccnc(N6C[C@H](OC)[C@@H](OC)C6)c5)cc4F)ncnc3cc2OC)CC1` [Example 256, 1-(4-((4-((4-((2-((3S,4S)-3,4-dimethoxypyrrolidin-1-yl)pyridin-4-yl)oxy)-2-fluorophenyl)amino)-7-methoxyquinazolin-6-yl)amino)piperidin-1-yl)prop-2-en-1-one], the concentration for 50% growth inhibition (GI50) was less than 30 nM in experiment [1]; 60 to 100 nM in experiment [2]; less than 30 nM in experiment [3]; less than 30 nM in experiment [4]; 100 to 300 nM in experiment [5].

As to `C=CC(=O)N1CCC(Nc2cc3c(Nc4ccc(Oc5ccnc(N6C[C@@H]7OCCO[C@@H]7C6)n5)cc4F)ncnc3cc2OC)CC1` [Example 257, 1-(4-((4-((2-fluoro-4-((2-((4aR,7aS)-hexahydro-6H-[1,4]dioxino[2,3-c]pyrrol-6-yl)pyrimidin-4-yl)oxy)phenyl)amino)-7-methoxyquinazolin-6-yl)amino)piperidin-1-yl)prop-2-en-1-one], the GI50 in experiment [1] was less than 30 nM; in experiment [2], 60 to 100 nM; in experiment [3], less than 30 nM; in experiment [4] it was less than 30 nM; in experiment [5], 600 to 1000 nM.

Regarding `C=CC(=O)N1CCC(Nc2cc3c(Nc4ccc(Oc5ccnc(N6CC[C@@H](C#N)C6)c5)cc4F)ncnc3cc2OC)CC1` [Example 258, (R)-1-(4-(4-((6-((1-acryloylpiperidin-4-yl)amino)-7-methoxyquinazolin-4-yl)amino)-3-fluorophenoxy)pyridin-2-yl)pyrrolidine-3-carbonitrile], the GI50 in experiment [1] is less than 30 nM; in experiment [2], 60 to 100 nM; in experiment [3], less than 30 nM; in experiment [4] it was less than 30 nM; in experiment [5], 600 to 1000 nM.

In the case of `C=CC(=O)N1CCC(Nc2cc3c(Nc4ccc(Oc5ccnc(N6CC[C@H](C#N)C6)c5)cc4F)ncnc3cc2OC)CC1` [Example 259, (S)-1-(4-(4-((6-((1-acryloylpiperidin-4-yl)amino)-7-methoxyquinazolin-4-yl)amino)-3-fluorophenoxy)pyridin-2-yl)pyrrolidine-3-carbonitrile], the 50% growth inhibitory concentration (GI50) in experiment [1] was less than 30 nM; in experiment [2], 60 to 100 nM; in experiment [3], less than 30 nM; in experiment [4] it was less than 30 nM; in experiment [5], not below 1000 nM.

`C=CC(=O)N1CCC(Nc2cc3c(Nc4ccc(Oc5ccnc(N6CC(F)(F)C(F)(F)C6)c5)cc4F)ncnc3cc2OC)CC1` [Example 261, 1-(4-((4-((2-fluoro-4-((2-(3,3,4,4-tetrafluoropyrrolidin-1-yl)pyridin-4-yl)oxy)phenyl)amino)-7-methoxyquinazolin-6-yl)amino)piperidin-1-yl)prop-2-en-1-one]: the 50% growth inhibitory concentration (GI50) in experiment [1] was 30 to 60 nM; in experiment [2], 100 to 300 nM; in experiment [3], 30 to 60 nM; in experiment [4], 30 to 60 nM; in experiment [5] it was 600 to 1000 nM.

With `C=CC(=O)N1CCC(Nc2cc3c(Nc4ccc(Oc5ccnc(N6CCC(C)(C#N)C6)c5)cc4F)ncnc3cc2OC)CC1` (stereo not drawn) [Example 262, 1-(4-(4-((6-((1-acryloylpiperidin-4-yl)amino)-7-methoxyquinazolin-4-yl)amino)-3-fluorophenoxy)pyridin-2-yl)-3-methylpyrrolidine-3-carbonitrile], the 50% growth inhibitory concentration (GI50) in experiment [1] was 30 to 60 nM; in experiment [2], 30 to 60 nM; in experiment [3] it was less than 30 nM; in experiment [4], 30 to 60 nM; in experiment [5] it was 600 to 1000 nM.

In the case of `C=CC(=O)N1CCC(Nc2cc3c(Nc4ccc(Oc5ccnc(N6C[C@@H](F)[C@@H](OC)C6)c5)cc4F)ncnc3cc2OC)CC1` [Example 263, 1-(4-((4-((2-fluoro-4-((2-((3R,4S)-3-fluoro-4-methoxypyrrolidin-1-yl)pyridin-4-yl)oxy)phenyl)amino)-7-methoxyquinazolin-6-yl)amino)piperidin-1-yl)prop-2-en-1-one], the 50% growth inhibitory concentration (GI50) in experiment [1] is less than 30 nM; in experiment [2] it was 100 to 300 nM; in experiment [3], less than 30 nM; in experiment [4] it was less than 30 nM; in experiment [5] it was 600 to 1000 nM.

`C=CC(=O)N1CCC(Nc2cc3c(Nc4ccc(Oc5ccnc(N6C[C@H](F)[C@@H](F)C6)c5)cc4F)ncnc3cc2OC)CC1` [Example 264, 1-(4-((4-((4-((2-((3S,4S)-3,4-difluoropyrrolidin-1-yl)pyridin-4-yl)oxy)-2-fluorophenyl)amino)-7-methoxyquinazolin-6-yl)amino)piperidin-1-yl)prop-2-en-1-one]: the concentration for 50% growth inhibition (GI50) is less than 30 nM in experiment [1]; 60 to 100 nM in experiment [2]; less than 30 nM in experiment [3]; less than 30 nM in experiment [4]; 600 to 1000 nM in experiment [5].

As for `C=CC(=O)N1CCC(Nc2cc3c(Nc4ccc(Oc5ccnc(N6CCC(C)(F)C6)c5)cc4F)ncnc3cc2OC)CC1` (stereo not drawn) [Example 265, 1-(4-((4-((2-fluoro-4-((2-(3-fluoro-3-methylpyrrolidin-1-yl)pyridin-4-yl)oxy)phenyl)amino)-7-methoxyquinazolin-6-yl)amino)piperidin-1-yl)prop-2-en-1-one], the GI50 was less than 30 nM in experiment [1]; 30 to 60 nM in experiment [2]; less than 30 nM in experiment [3]; less than 30 nM in experiment [4]; 100 to 300 nM in experiment [5].
